Data on 75 molecules can be found in paper PMC6792352, “Limited Chemical Structural Diversity Found to Modulate Thyroid Hormone Receptor in the Tox21 Chemical Library” (Environmental Health Perspectives, 2019).

As a reminder, the CC50 is the concentration that lowers cell viability or growth by half. A low value points to greater toxicity to the cells.

Where a name gives a salt, the structure may show the parent alone. Bounds are passed on as bounds.

A short description of the first data set: in vitro. The conditions noted are these: rat, gh3-tre-luc cells, AC50 (uM) modified / 1000.
Molecule `Cc1cc(C)nc(Nc2ccccc2)n1` [Pyrimethanil] showed a CC50 at 24 h of more than 90 µM. Molecule `Sc1ncccn1` [Pyrimidine-2-thiol] registered a CC50 at 24 h of more than 90 µM. Still for that read-out and setting: the same measure for `CC(COc1ccc(Oc2ccccc2)cc1)Oc1ccccn1` (stereo not drawn) [Pyriproxyfen]: more than 90 µM.

`COc1cc(OC)nc(Sc2cccc(Cl)c2C(=O)O)n1` [Pyrithiobac-sodium] returned a CC50 at 24 h of more than 90 µM. The same measure, in the same setting: then `Cc1ncc(CSSCc2cnc(C)c(O)c2CO)c(CO)c1O` [Pyrithioxin dihydrochloride], with more than 50 µM. `Oc1cccc(O)c1O` [Pyrogallol]: the CC50 at 24 h is 44.6 µM. The same measure, in the same setting: the same measure for `O=C(O)c1cc(C(=O)O)c(C(=O)O)cc1C(=O)O` [Pyromellitic acid]: more than 90 µM; for `Cc1cccc(C)c1NC(=O)CN1CCCC1` [Pyrrocaine]: more than 50 µM. Still for that read-out and setting: the same measure for `O=[N+]([O-])c1c(Cl)cccc1-c1c[nH]cc1Cl` [Pyrrolnitrin]: 23.7 µM; for `CC(=O)C(=O)O` [Pyruvic acid]: more than 90 µM.

For `CC(C(=O)O)c1ccc(C2CCCCC2)c2ccccc12` (stereo not drawn) [Quadrisol], the CC50 at 24 h was more than 50 µM. Same read-out and setting: then `C[C@@H]1C(=O)NC2=Nc3cccc(Cl)c3CN21` [Quazinone], with more than 50 µM; and `CCc1ncnc2cc(OC)c(OC)cc12` [Quazodine], with more than 50 µM. `O=c1c(O)c(-c2ccc(O)c(O)c2)oc2cc(O)cc(O)c12` [Quercetin dihydrate] displayed a 50% cytotoxic concentration (CC50) at 24 h of 57 µM. On the same count and under the same terms, then `OCCOCCN1CCN(C2=Nc3ccccc3Sc3ccccc32)CC1` [Quetiapine], with more than 50 µM. On the same count and under the same terms, the same measure for `OC(c1ccccc1)(c1ccccc1)C1CN2CCC1CC2` (stereo not drawn) [Quifenadine]: 35.6 µM; for `CCN(CC)CCCC(C)Nc1c2ccc(Cl)cc2nc2ccc(OC)cc12` (stereo not drawn) [Quinacrine dihydrochloride dihydrate]: more than 50 µM.

Molecule `Cc1ccc2ccccc2n1` [Quinaldine] yielded a CC50 at 24 h of more than 90 µM. On the same count and under the same terms, the same measure for `CCOC(=O)[C@H](CCc1ccccc1)N[C@@H](C)C(=O)N1Cc2ccccc2C[C@H]1C(=O)O` [Quinapril hydrochloride]: more than 90 µM. Turning to `O=C(O)c1c(Cl)ccc2cc(Cl)cnc12` [Quinclorac], the CC50 at 24 h is more than 90 µM. Same read-out and setting: the same measure for `[O-][n+]1cc[n+]([O-])c2ccccc21` [Quindoxin]: more than 50 µM. On the same count and under the same terms, then `CCCN1CCC[C@@H]2Cc3nc(N)ncc3C[C@H]21` [Quinelorane], with more than 50 µM. In turn, `C#C[C@]1(O)CC[C@H]2[C@@H]3CCc4cc(OC5CCCC5)ccc4[C@H]3CC[C@@]21C` [Quinestrol] gave a CC50 at 24 h of 16 µM. In other words, the double-digit micromolar range. On the same count and under the same terms, then `CCC1NC(=O)c2cc(S(N)(=O)=O)c(Cl)cc2N1` (stereo not drawn) [Quinethazone], with more than 20 µM; and `C=C[C@H]1C[N@@]2CC[C@H]1C[C@@H]2[C@@H](O)c1ccnc2ccc(OC)cc12` [Quinidine], with 85.2 µM. On the same count and under the same terms, then `C=C[C@H]1CN2CC[C@H]1C[C@H]2[C@H](OC(=O)OCC)c1ccnc2ccc(OC)cc12` [Quinine ethyl carbonate], with more than 50 µM; and `C=C[C@H]1C[N@@]2CC[C@H]1C[C@H]2[C@H](O)c1ccnc2ccc(OC)cc12` [Quinine hemisulfate salt monohydrate], with more than 50 µM. The same measure, in the same setting: then `Cc1cnc2c(C(=O)O)c(Cl)ccc2c1` [Quinmerac], with more than 90 µM; and `COc1cc(NCCCC(C)N)c2ncccc2c1` (stereo not drawn) [Quinocide], with 15.1 µM; and `c1ccc2ncccc2c1` [Quinoline], with more than 90 µM. In turn, `O=C(O)c1cccnc1C(=O)O` [Quinolinic acid] had a half-maximal cytotoxic concentration (CC50) at 24 h of more than 90 µM. Still for that read-out and setting: then `c1ccc2nccnc2c1` [Quinoxaline], with more than 90 µM; and `Fc1ccc(Oc2ccnc3cc(Cl)cc(Cl)c23)cc1` [Quinoxyfen], with 74.9 µM. Still for that read-out and setting: the same measure for `c1ccc2nc(N3CCNCC3)ccc2c1` [Quipazine maleate]: 36.9 µM; for `CCOC(=O)C(C)Oc1ccc(Oc2cnc3cc(Cl)ccc3n2)cc1` (stereo not drawn) [Quizalofop-ethyl]: more than 90 µM.

Molecule `CCCN1CCC[C@H](c2cccc(O)c2)C1` [R-3-PPP hydrochloride] came in with a CC50 at 24 h of more than 50 µM. On the same count and under the same terms, the same measure for `CC(C)=C1CC[C@@H](C)CC1=O` [R-(+)-Pulegone]: more than 90 µM. The same measure, in the same setting: then `C=CCC1([C@H](C)CCC)C(=O)NC(=O)NC1=O` [R-(+)-Secobarbital], with more than 90 µM.

For the molecule `COc1cc(C[C@@H](C)N)c(OC)cc1Br` [R-(-)-2,5-Dimethoxy-4-bromoamphetamine hydrochloride], the CC50 at 24 h came out at 56.1 µM. On the same count and under the same terms, the same measure for `COc1cc(C[C@@H](C)N)c(OC)cc1C` [R-(-)-2,5-Dimethoxy-4-methylamphetamine hydrochloride]: 41.9 µM. Still for that read-out and setting: the same measure for `C=C(C)[C@@H]1CC=C(C)C(=O)C1` [R-(-)-Carvone]: more than 90 µM. Consider `COCCCOc1ccnc(C[S+]([O-])c2nc3ccccc3[nH]2)c1C` (stereo not drawn) [Rabeprazole sodium], for which the CC50 at 24 h is more than 90 µM. `CC(=O)SCC(Cc1ccccc1)C(=O)NCC(=O)OCc1ccccc1` (stereo not drawn) [Racecadotril] had a CC50 at 24 h of more than 20 µM. On to `CCN1CCC[C@H]1CNC(=O)c1c(O)c(Cl)cc(Cl)c1OC` [Raclopride], for which the CC50 at 24 h was more than 50 µM. Same read-out and setting: the same measure for `CC(CCc1ccc(O)cc1)NCC(O)c1ccc(O)cc1` (stereo not drawn) [Ractopamine hydrochloride]: more than 50 µM.

In turn, `O=C(Nc1ccc(Oc2ccc(Cl)cc2)c(Cl)c1)c1cc(I)cc(I)c1O` [Rafoxanide] gave a CC50 at 24 h of 36.2 µM. On the same count and under the same terms, the same measure for `O=C(c1ccc(OCCN2CCCCC2)cc1)c1c(-c2ccc(O)cc2)sc2cc(O)ccc12` [Raloxifene]: 3.84 µM; for `Cc1nnc(C(=O)NC(C)(C)c2nc(C(=O)NCc3ccc(F)cc3)c(O)c(=O)n2C)o1` [Raltegravir]: more than 50 µM. On the same count and under the same terms, the same measure for `Cc1nc2ccc(CN(C)c3ccc(C(=O)N[C@@H](CCC(=O)O)C(=O)O)s3)cc2c(=O)[nH]1` [Raltitrexed]: more than 50 µM. Same read-out and setting: the same measure for `O=C(O)CCn1c2c(c3ccccc31)C[C@H](NS(=O)(=O)c1ccc(F)cc1)CC2` [Ramatroban]: more than 50 µM; for `CCC(=O)NCC[C@@H]1CCc2ccc3c(c21)CCO3` [Ramelteon]: more than 50 µM.

Regarding `Cc1c(NC(C)C)c(=O)n(-c2ccccc2)n1C` [Ramifenazone], the CC50 at 24 h was more than 50 µM. On the same count and under the same terms, then `CCOC(=O)[C@H](CCc1ccccc1)N[C@@H](C)C(=O)N1[C@H](C(=O)O)C[C@@H]2CCC[C@@H]21` [Ramipril], with more than 50 µM. Still for that read-out and setting: the same measure for `Cn1cc(C(=O)[C@@H]2CCc3nc[nH]c3C2)c2ccccc21` [Ramosetron hydrochloride]: more than 50 µM; for `CN/C(=C\[N+](=O)[O-])NCCSCc1ccc(CN(C)C)o1` [Ranitidine]: more than 90 µM; for `COc1ccccc1OCC(O)CN1CCN(CC(=O)Nc2c(C)cccc2C)CC1` (stereo not drawn) [Ranolazine]: more than 50 µM. Still for that read-out and setting: then `C=CC[N+]1([C@H]2C[C@H]3[C@@H]4CC[C@H]5C[C@H](OC(C)=O)[C@@H](N6CCCCC6)C[C@]5(C)[C@H]4CC[C@]3(C)[C@H]2OC(=O)CC)CCCCC1` [Rapacuronium bromide], with more than 50 µM; and `C#CCN[C@@H]1CCc2ccccc21` [Rasagiline mesylate], with more than 50 µM.

For the molecule `COC(=O)[C@H]1[C@H]2C[C@H]3c4[nH]c5ccccc5c4CCN3C[C@H]2CC[C@@H]1O` [Rauwolscine], the CC50 at 24 h is more than 50 µM.

Take `O=C(NC(Cc1cc(=O)[nH]c2ccccc12)C(=O)O)c1ccc(Cl)cc1` (stereo not drawn) [Rebamipide]: the CC50 at 24 h is more than 50 µM. Still for that read-out and setting: the same measure for `C=C1C[C@@]23CC[C@H]4[C@@](C)(CCC[C@@]4(C)C(=O)O[C@@H]4O[C@H](CO)[C@@H](O)[C@H](O)[C@H]4O)[C@@H]2CC[C@]1(O[C@@H]1O[C@H](CO)[C@@H](O)[C@H](O)[C@H]1O[C@@H]1O[C@H](CO)[C@@H](O)[C@H](O[C@@H]2O[C@H](CO)[C@@H](O)[C@H](O)[C@H]2O)[C@H]1O)C3` [Rebaudioside A]: more than 90 µM; for `COc1ccc(S(=O)(=O)N2c3ccc(Cl)cc3[C@](O)(c3ccccc3Cl)[C@@H]2C(=O)N2CCC[C@H]2C(N)=O)cc1OC` [Relcovaptan]: more than 50 µM; for `CC(Cc1ccccc1)(NC(=O)CN)c1ccccc1` (stereo not drawn) [Remacemide hydrochloride]: more than 50 µM. Molecule `CCN1CCC[C@H]1CNC(=O)c1c(OC)ccc(Br)c1OC` [Remoxipride] returned a 50% cytotoxic concentration (CC50) at 24 h of more than 50 µM. Same read-out and setting: the same measure for `CCOc1cc(CC(=O)N[C@@H](CC(C)C)c2ccccc2N2CCCCC2)ccc1C(=O)O` [Repaglinide]: more than 20 µM; for `CC(C)Cc1ccc([C@@H](C)C(=O)NS(C)(=O)=O)cc1` [Reparixin]: more than 50 µM; for `COC(=O)[C@H]1[C@H]2C[C@@H]3c4[nH]c5cc(OC)ccc5c4CCN3C[C@H]2C[C@@H](OC(=O)/C=C/c2cc(OC)c(OC)c(OC)c2)[C@@H]1OC` [Rescinnamine]: more than 20 µM.

On to `CC(=O)Oc1cccc(O)c1` [Resorcinol monoacetate], for which the CC50 at 24 h is more than 50 µM. Take `Oc1cccc(O)c1` [Resorcinol]: the CC50 at 24 h was more than 90 µM. Still for that read-out and setting: the same measure for `CC1=C(/C=C/C(C)=C/C=C/C(C)=C/C=O)C(C)(C)CCC1` [Retinal]: 12.4 µM; for `CCCCCCCCCCCCCCCC(=O)OC/C=C(C)/C=C/C=C(C)/C=C/C1=C(C)CCCC1(C)C` [Retinol palmitate]: more than 50 µM; for `O=C(O)c1cc(O)c2c(c1)C(=O)c1cccc(O)c1C2=O` [Rhein]: more than 90 µM.

The data set is the same for the next values; noted with them: rat, gh3-tre-luc cells, AC50 (uM) modified / 1000, Tox21_110001=Tox21_110368; viability, 1 nM T3 present, 24 h.
`CCC1(CC)C(=O)C=CNC1=O` [Pyrithyldione] yielded a CC50 at 24 h of more than 50 µM.

The data set is the same for the next values; noted with them: rat, gh3-tre-luc cells, AC50 (uM) modified / 1000, Tox21_110001=Tox21_202028; viability, 1 nM T3 present, 24 h.
The molecule `CCOP(=S)(OCC)Oc1cnc2ccccc2n1` [Quinalphos] displayed a CC50 at 24 h of more than 90 µM.

Staying with this data set, now noted: rat, gh3-tre-luc cells, AC50 (uM) modified / 1000, Tox21_110001=Tox21_302252; viability, 1 nM T3 present, 24 h.
Molecule `O=C(NCc1cccnc1)Nc1ccc([N+](=O)[O-])cc1` [Pyrinuron] yielded a CC50 at 24 h of 81.3 µM. In other words, the double-digit micromolar range.
